According to patent US11813306B2, “Cyclic tetramer compounds as proprotein convertase subtilisin/kexin type 9 (PCSK9) inhibitors for the treatment of metabolic disorders” (NOVARTIS AG, priority 2018, dated 2023):

Biological target: human PCSK9 (Homo sapiens, UniProt Q8NBP7)
Experiment: PCSK9 ligand binding assay (TR-FRET): interference with binding of human PCSK9 to human LDLR
Conditions: for IC50: Human PCSK9 Alexa Fluor 647 / Human LDLR extracellular domain-Europium Kryptate; for Max % inhibition: efficacy (Amax), 100% = 1 uM unlabeled human PCSK9, 0% = DMSO
In short: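 Read-out was TR-FRET ratio (665 nm over 615 nm, 330 nm excitation) between Alexa Fluor 647-human PCSK9 (16 nM added) and Europium Kryptate-human LDLR ectodomain (4 nM added). Compound and PCSK9 were mixed 30 min before LDLR, then incubated 2 h. Inhibition was normalised to DMSO and unlabelled-PCSK9 controls, giving IC50 and Amax.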

Chain of human PCSK9 (Q8NBP7 153-692): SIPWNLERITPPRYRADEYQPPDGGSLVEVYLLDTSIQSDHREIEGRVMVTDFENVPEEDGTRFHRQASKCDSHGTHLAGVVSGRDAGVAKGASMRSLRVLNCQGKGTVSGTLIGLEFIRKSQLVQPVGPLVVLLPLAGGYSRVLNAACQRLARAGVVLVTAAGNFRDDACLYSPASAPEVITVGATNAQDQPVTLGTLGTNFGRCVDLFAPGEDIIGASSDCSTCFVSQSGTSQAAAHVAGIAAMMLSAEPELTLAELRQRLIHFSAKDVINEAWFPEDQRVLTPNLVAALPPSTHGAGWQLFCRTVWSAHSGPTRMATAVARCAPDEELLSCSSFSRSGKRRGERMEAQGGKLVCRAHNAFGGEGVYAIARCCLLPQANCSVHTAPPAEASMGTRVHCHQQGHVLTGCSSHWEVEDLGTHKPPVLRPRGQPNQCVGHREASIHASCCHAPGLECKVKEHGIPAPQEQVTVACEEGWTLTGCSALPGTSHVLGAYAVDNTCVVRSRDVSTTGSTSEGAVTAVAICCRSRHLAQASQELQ
Chain of human PCSK9 (Q8NBP7 31-152 partner limits assumed): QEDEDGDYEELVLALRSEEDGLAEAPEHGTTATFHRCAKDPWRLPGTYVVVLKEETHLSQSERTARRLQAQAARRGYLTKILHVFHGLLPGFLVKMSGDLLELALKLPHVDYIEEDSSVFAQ

Row | SMILES | IC50 [nM] | Max % inhibition [%]
1 | COC[C@@H]1NC(=O)[C@H](C)N(Cc2c(F)cc(Cl)cc2Oc2ccc(-c3cnc(CN(C)C)n3C)cc2)C(=O)C[C@@H](C2CCOCC2)C(=O)N2CCC[C@@](Cc3ccc(Cl)cc3)(C2)N(C)C1=O [Compound 174, (3S, 7S, 10S, 13R)-6-(4-chloro-2-(4-(2-((dimethylamino)methyl)-1-methyl-1H-imidazol-5-yl)phenoxy)-6-fluorobenzyl)-13-(4-chlorobenzyl)-10-(methoxymethyl)-7,12-dimethyl-3-(tetrahydro-2H-pyran-4-yl)-1,6,9,12-tetraazabicyclo[11.3.1]heptadecane-2,5,8,11-tetraone] | 2.2 | 110.7
2 | C[C@H]1C(=O)N[C@@H](CO)C(=O)N[C@@]2(Cc3ccc(Cl)cc3)CCCN(C2)C(=O)[C@H](CC2CC2)CC(=O)N1Cc1c(F)cc(Cl)cc1Oc1ccc(-c2cnc(CNC3CCC3)n2C)cc1 [Compound 153, (3R, 7S, 10S, 13R)-6-(4-chloro-2-(4-(2-((cyclobutylamino)methyl)-1-methyl-1H-imidazol-5-yl)phenoxy)-6-fluorobenzyl)-13-(4-chlorobenzyl)-3-(cyclopropylmethyl)-10-(hydroxymethyl)-7-methyl-1,6,9,12-tetraazabicyclo[11.3.1]heptadecane-2,5,8,11-tetraone] | 0.93 | 100.4
3 | C[C@H]1C(=O)N[C@@H](CO)C(=O)N(C)[C@@]2(Cc3ccc(Cl)cc3)CCCN(C2)C(=O)[C@H](Cc2ccccc2)CC(=O)N1Cc1ccc(Cl)cc1Oc1ccc(-c2cnc(CN(C)C)n2C)nc1 [Compound 71] | 0.754 | 102.6
4 | C[C@H](NCc1ccc(Cl)cc1Oc1ccc(-c2cnc(CN(C)C)n2C)cc1)C(=O)N[C@H]1COC(=O)C[C@@H](Cc2ccccc2)C(=O)N2CCC[C@@](Cc3ccc(Cl)cc3)(C2)N(C)C1=O [Compound 126, (2S)-N-((3R, 8S, 11R)-3-benzyl-11-(4-chlorobenzyl)-10-methyl-2,5,9-trioxo-6-oxa-1,10-diazabicyclo[9.3.1]pentadecan-8-yl)-2-((4-chloro-2-(4-(2-((dimethylamino)methyl)-1-methyl-1H-imidazol-5-yl)phenoxy)benzyl)amino)propanamide] | 612 | 100.1
5 | C[C@H]1C(=O)N[C@@H](CO)C(=O)N[C@@]2(Cc3ccc(Cl)cc3)CCCN(C2)C(=O)[C@H]([C@@H]2CCc3ccccc32)CC(=O)N1Cc1ccc(C(F)(F)F)cc1Oc1ccc(-c2cnc(CN(C)C)n2C)cc1 [Compound 90] | 1.71 | 99.2
6 | C[C@H]1C(=O)N[C@@H](CO)C(=O)N[C@@]2(Cc3ccc(Cl)cc3)CCCN(C2)C(=O)[C@H](Cc2ccccc2)CC(=O)N1Cc1ccc(Cl)cc1Oc1ccc(-c2cnc(CN(C)C)n2C)cc1 [Compound 50, (3R,7S,10S,13R)-3-Benzyl-6-(4-chloro-2-(4-(2-((dimethylamino)methyl)-1-methyl-1H-imidazol-5-yl)phenoxy)benzyl)-13-(4-chlorobenzyl)-10-(hydroxymethyl)-7-methyl-1,6,9,12-tetraazabicyclo[11.3.1]heptadecane-2,5,8,11-tetraone] | 0.51 | 108.7
7 | CN(C)Cc1ncc(-c2ccc(Oc3cc(Cl)ccc3CN3C(=O)C[C@@H](Cc4ccccc4)C(=O)N4CCC[C@@](Cc5ccc(Cl)cc5)(C4)NC(=O)[C@H](CO)NC(=O)[C@@H]3CCN)cc2)n1C [Compound 178, (3R,7S,10S,13R)-7-(2-aminoethyl)-3-benzyl-6-(4-chloro-2-(4-(2-((dimethylamino)methyl)-1-methyl-1H-imidazol-5-yl)phenoxy)benzyl)-13-(4-chlorobenzyl)-10-(hydroxymethyl)-1,6,9,12-tetraazabicyclo[11.3.1]heptadecane-2,5,8,11-tetraone] | 2.66 | 104.3
8 | C[C@H]1C(=O)N[C@@H](CO)C(=O)N(C)[C@@]2(Cc3ccc(Cl)cc3)CCCN(C2)C(=O)[C@H](Cc2ccccc2)CC(=O)N1Cc1c(F)cc(Cl)cc1Oc1ccc(-c2cnc(CN(C)C)n2C)cc1 [Compound 79, (3R, 7S, 10S, 13R)-3-benzyl-6-(4-chloro-2-(4-(2-((dimethylamino)methyl)-1-methyl-1H-imidazol-5-yl)phenoxy)-6-fluorobenzyl)-13-(4-chlorobenzyl)-10-(hydroxymethyl)-7,12-dimethyl-1,6,9,12-tetraazabicyclo[11.3.1]heptadecane-2,5,8,11-tetraone] | 0.819 | 108.3
9 | C[C@H]1C(=O)N[C@@H](CO)C(=O)N[C@@]2(Cc3ccc(Cl)cc3)CCCN(C2)C(=O)[C@H](CC2CC2)CC(=O)N1Cc1c(F)cc(Cl)cc1Oc1ccc(-c2cnc(CN(C)C(C)(C)C)n2C)cc1 [Compound 163, (3R, 7S, 10S, 13R)-6-(2-(4-(2-((tert-butyl(methyl)amino)methyl)-1-methyl-1H-imidazol-5-yl)phenoxy)-4-chloro-6-fluorobenzyl)-13-(4-chlorobenzyl)-3-(cyclopropylmethyl)-10-(hydroxymethyl)-7-methyl-1,6,9,12-tetraazabicyclo[11.3.1]heptadecane-2,5,8,11-tetraone] | 1.21 | 111.6
10 | C[C@H]1C(=O)N[C@@H](CO)C(=O)N[C@@]2(Cc3ccc(Cl)cc3)CCCN(C2)C(=O)[C@H](Cc2ccccc2)CC(=O)N1Cc1c(F)cc(Cl)cc1Oc1ccc(-c2cnc(CN(C)C)n2C)cc1 [Compound 11, (3R, 7S, 10S, 13R)-3-benzyl-6-(4-chloro-2-(4-(2-((dimethylamino)methyl)-1-methyl-1H-imidazol-5-yl)phenoxy)-6-fluorobenzyl)-13-(4-chlorobenzyl)-10-(hydroxymethyl)-7-methyl-1,6,9,12-tetraazabicyclo[11.3.11]-heptadecane-2,5,8,11-tetraone] | 0.351 | 110.0

Continued, values first:

Row | IC50 [nM] | Max % inhibition [%] | SMILES
11 | 11.4 | 102.4 | COC[C@@H]1NC(=O)[C@H](C)N(Cc2ccc(Cl)cc2Oc2ccc(-c3cnc(CN4CCCC4)n3C)cc2)C(=O)C[C@@H]([C@H]2CC(C)(C)c3ccccc32)C(=O)N(C)C[C@@H](Cc2ccc(Cl)cc2)N(C)C1=O.Cl [Compound 111, (2S, 5S, 8R, 12S)-1-(4-chloro-2-(4-(1-methyl-2-(pyrrolidin-1-ylmethyl)-1H-imidazol-5-yl)phenoxy)benzyl)-8-(4-chlorobenzyl)-12-((R)-3,3-dimethyl-2,3-dihydro-1H-inden-1-yl)-5-(methoxymethyl)-2,7,10-trimethyl-1,4,7,10-tetraazacyclotetradecane-3,6,11,14-tetraone]
12 | 205 | 87.3 | CC(=O)C[C@@H]1NC(=O)[C@H](C)N(Cc2ccc(Cl)cc2Oc2ccc(-c3cnc(CN4CCCC4)n3C)cc2)C(=O)C[C@@H](Cc2ccccc2)C(=O)N(C)C[C@@H](Cc2ccc(Cl)cc2)N(C)C1=O.Cl [Compound 129, (2S,5S,8R,12R)-12-benzyl-1-(4-chloro-2-(4-(1-methyl-2-(pyrrolidin-1-ylmethyl)-1H-imidazol-5-yl)phenoxy)benzyl)-8-(4-chlorobenzyl)-2,7,10-trimethyl-5-(2-oxopropyl)-1,4,7,10-tetraaza-cyclotetradecane-3,6,11,14-tetraone hydrochloride]
13 | 1.68 | 101.9 | C[C@H]1C(=O)N[C@@H](CO)C(=O)N[C@@]2(Cc3ccc(Cl)cc3)CCCN(C2)C(=O)[C@H]([C@@H]2CCc3ccccc32)CC(=O)N1Cc1ccc(Cl)cc1Oc1ccc(-c2cnc(CN(C)C)n2C)cc1.Cl [Compound 84, (3S, 7S, 10S, 13R)-6-(4-chloro-2-(4-(2-((dimethylamino)methyl)-1-methyl-1H-imidazol-5-yl)phenoxy)benzyl)-13-(4-chlorobenzyl)-3-((S)-2,3-dihydro-1H-inden-1-yl)-10-(hydroxymethyl)-7-methyl-1,6,9,12-tetraazabicyclo[11.3.1]heptadecane-2,5,8,11-tetraone]
14 | 0.47 | 107.0 | COC[C@@H]1NC(=O)[C@H](C)N(Cc2ccc(Cl)cc2Oc2ccc(-c3cnc(CN(C)C)n3C)cc2)C(=O)C[C@@H](Cc2ccccn2)C(=O)N2CCC[C@@](Cc3ccc(Cl)cc3)(C2)NC1=O [Compound 21, (3R,7S,10S,13R)-6-(4-Chloro-2-(4-(2-((dimethylamino)methyl)-1-methyl-1H-imidazol-5-yl)phenoxy)benzyl)-13-(4-chlorobenzyl)-10-(methoxymethyl)-7-methyl-3-(pyridin-2-ylmethyl)-1,6,9,12-tetraazabicyclo[11.3.1]heptadecane-2,5,8,11-tetraone]
15 | 35.1 | 98.9 | COC[C@@H]1NC(=O)[C@H](C)N(Cc2ccc(Cl)cc2Oc2cc(F)c(-c3cnc(CN4CCCC4)n3C)c(F)c2)C(=O)C[C@@H](Cc2ccccc2)C(=O)N(C)C[C@@H](Cc2ccc(Cl)cc2)N(C)C1=O.Cl [Compound 117, (2S, 5S, 8R, 12R)-12-benzyl-1-(4-chloro-2-(3,5-difluoro-4-(1-methyl-2-(pyrrolidin-1-ylmethyl)-1H-imidazol-5-yl)phenoxy)benzyl)-8-(4-chlorobenzyl)-5-(methoxymethyl)-2,7,10-trimethyl-1,4,7,10-tetraazacyclotetradecane-3,6,11,14-tetraone]
16 | 2.08 | 98.4 | COc1cccc2c1OC[C@@H]2[C@@H]1CC(=O)N(Cc2ccc(Cl)cc2Oc2ccc(-c3cnc(CN4CCCC4)n3C)cc2)[C@@H](C)C(=O)N[C@@H](CO)C(=O)N(C)[C@H](Cc2ccc(Cl)cc2)CN(C)C1=O.Cl [Compound 103, (2S, 5S, 8R, 12S)-1-(4-chloro-2-(4-(1-methyl-2-(pyrrolidin-1-ylmethyl)-1H-imidazol-5-yl)phenoxy)benzyl)-8-(4-chlorobenzyl)-5-(hydroxymethyl)-12-((R)-7-methoxy-2,3-dihydrobenzofuran-3-yl)-2,7,10-trimethyl-1,4,7,10-tetraazacyclotetradecane-3,6,11,14-tetraone]
